This passage reports melting point, Kd and IC50 results from patent publication US10526316B2, “Quinoxaline and pyridopyrazine derivatives as PI3Kβ inhibitors” (Janssen Pharmaceutica NV, priority 2015, dated 2020).

The target of one series is T1, PI3Kβ (Homo sapiens, UniProt P42338).
T1 construct: purchased DiscoveRx Corporation, San Diego (contract service, KINOMEscan)
Put plainly: Enzyme binding assay (KINOMEscan, DiscoveRx). To be noted: PIK3Cβ_h, read-out: Kd PIK3Cβ_h. An outline of the steps: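 KINOMEscan binding platform; read-out is the inhibitor binding constant Kd (nM).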

Series [1] concerns the target T2, kinase enzymes (Homo sapiens, UniProt P42345).
T2 construct: purchased DiscoveRx Corporation, San Diego (contract service, KINOMEscan)
Put plainly: Enzyme binding assay (KINOMEscan, DiscoveRx), further kinases of Table A. To be noted: MTOR_h. The method in brief:
(§1)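 KINOMEscan readout; values are kinase binding affinities.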

The target in series [2] is T3, kinase enzymes (Homo sapiens, UniProt P48736).
T3 construct: purchased DiscoveRx Corporation, San Diego (contract service, KINOMEscan)
T3 sequence (P48736 whole entry): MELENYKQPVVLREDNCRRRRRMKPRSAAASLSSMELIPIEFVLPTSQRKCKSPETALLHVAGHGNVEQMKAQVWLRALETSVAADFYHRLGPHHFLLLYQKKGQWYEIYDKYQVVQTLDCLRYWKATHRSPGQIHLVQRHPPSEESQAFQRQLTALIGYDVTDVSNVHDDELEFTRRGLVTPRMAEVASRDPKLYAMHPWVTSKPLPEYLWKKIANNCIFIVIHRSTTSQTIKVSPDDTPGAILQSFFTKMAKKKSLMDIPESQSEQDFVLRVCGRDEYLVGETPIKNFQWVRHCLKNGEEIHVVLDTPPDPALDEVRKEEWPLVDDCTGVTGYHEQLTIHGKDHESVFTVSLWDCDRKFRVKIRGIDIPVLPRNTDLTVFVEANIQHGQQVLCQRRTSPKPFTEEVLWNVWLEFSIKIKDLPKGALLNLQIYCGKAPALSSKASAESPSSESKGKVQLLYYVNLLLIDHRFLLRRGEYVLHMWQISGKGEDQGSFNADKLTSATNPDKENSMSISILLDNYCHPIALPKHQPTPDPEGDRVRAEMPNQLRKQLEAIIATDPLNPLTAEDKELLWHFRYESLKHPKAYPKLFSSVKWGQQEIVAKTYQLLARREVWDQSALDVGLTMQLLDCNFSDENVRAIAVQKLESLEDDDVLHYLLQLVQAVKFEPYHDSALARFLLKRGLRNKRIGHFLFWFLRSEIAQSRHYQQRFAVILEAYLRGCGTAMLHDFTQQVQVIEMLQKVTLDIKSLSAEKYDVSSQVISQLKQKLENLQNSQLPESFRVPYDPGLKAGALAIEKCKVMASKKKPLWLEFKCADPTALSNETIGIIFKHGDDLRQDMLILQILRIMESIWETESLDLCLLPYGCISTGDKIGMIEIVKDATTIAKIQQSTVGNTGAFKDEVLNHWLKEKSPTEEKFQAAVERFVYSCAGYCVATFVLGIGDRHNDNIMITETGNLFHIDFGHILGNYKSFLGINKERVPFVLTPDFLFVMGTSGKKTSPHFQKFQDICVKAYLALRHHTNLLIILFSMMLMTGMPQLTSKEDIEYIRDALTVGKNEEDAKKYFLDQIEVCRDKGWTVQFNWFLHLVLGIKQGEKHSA
The series is described as above. To be noted: PIK3Cγ_h. An outline of the steps: as §1

Series [3] concerns the target T4, kinase enzymes (Homo sapiens, UniProt P42336).
T4 construct: purchased DiscoveRx Corporation, San Diego (contract service, KINOMEscan)
The description is as above. To be noted: PIK3Cα_h. The method in brief:
as §1

The target in a further series is T5, PI3Kδ (Homo sapiens, UniProt O00329).
T5 construct: purchased DiscoveRx Corporation, San Diego (contract service, KINOMEscan)
T5 sequence (O00329 1-1044): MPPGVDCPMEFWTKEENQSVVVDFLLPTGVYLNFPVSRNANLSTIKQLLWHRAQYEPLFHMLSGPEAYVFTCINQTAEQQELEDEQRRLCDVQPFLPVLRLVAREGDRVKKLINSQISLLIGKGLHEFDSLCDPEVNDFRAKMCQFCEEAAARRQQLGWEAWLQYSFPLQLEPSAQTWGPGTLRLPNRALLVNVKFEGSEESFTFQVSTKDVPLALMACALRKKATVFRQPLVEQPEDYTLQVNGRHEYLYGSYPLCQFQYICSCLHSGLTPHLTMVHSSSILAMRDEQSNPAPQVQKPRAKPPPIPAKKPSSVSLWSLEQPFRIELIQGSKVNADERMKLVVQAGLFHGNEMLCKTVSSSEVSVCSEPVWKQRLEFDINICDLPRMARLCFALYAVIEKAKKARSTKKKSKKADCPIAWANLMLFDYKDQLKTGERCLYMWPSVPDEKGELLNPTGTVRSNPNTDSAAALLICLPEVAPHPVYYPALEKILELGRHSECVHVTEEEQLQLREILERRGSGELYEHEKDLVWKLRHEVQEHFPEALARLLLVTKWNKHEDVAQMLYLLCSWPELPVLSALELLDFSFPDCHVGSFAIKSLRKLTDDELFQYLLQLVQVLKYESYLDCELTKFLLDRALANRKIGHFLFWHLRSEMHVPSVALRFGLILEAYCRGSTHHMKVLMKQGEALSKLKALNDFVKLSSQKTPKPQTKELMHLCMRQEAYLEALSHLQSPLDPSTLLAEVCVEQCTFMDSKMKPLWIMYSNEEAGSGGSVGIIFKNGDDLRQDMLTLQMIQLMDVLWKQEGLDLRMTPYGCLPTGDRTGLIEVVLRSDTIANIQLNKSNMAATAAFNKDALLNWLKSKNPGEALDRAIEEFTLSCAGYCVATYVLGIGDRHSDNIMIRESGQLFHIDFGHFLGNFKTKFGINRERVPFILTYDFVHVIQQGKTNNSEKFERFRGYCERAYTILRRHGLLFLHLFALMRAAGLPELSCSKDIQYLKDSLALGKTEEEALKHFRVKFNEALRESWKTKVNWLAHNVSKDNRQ
Briefly: Enzyme binding assay (KINOMEscan, DiscoveRx). To be noted: PIK3Cδ_h. The method in brief: as §1

In series [4] the test system is Akt phosphorylated at Thr308 in PC-3 cells. Put plainly: Cellular assay: phosphorylation of Akt at Thr308 in PC-3 cells (MSD ELISA). The format is cell-based. To be noted: Homo sapiens, PC-3, 1 h, PC-3 cells, 60 min compound incubation, MSD ELISA; read-out: IC50 pAkt_Thr308. An outline of the steps:
(§2)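 After lysis of treated cells (60 min, 37° C, 0.3% DMSO), phospho-Akt levels were measured by MSD electrochemiluminescence ELISA. Potency was derived from concentration-response curves fitted over five concentrations.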
Background: An ELISA detects its analyte on a solid surface through an enzyme-linked reagent.

Series [5] deals with Akt phosphorylated at Ser473 in PC-3 cells. Briefly: Cellular assay: phosphorylation of Akt at Ser473 in PC-3 cells (MSD ELISA). In kind it is cell-based. To be noted: Homo sapiens, PC-3, 1 h, PC-3 cells, 60 min compound incubation, MSD ELISA; read-out: IC50 pAkt_S473. The method in brief:
as §2

SMILES strings stand for the structures. Structures can show the parent of a compound that is named as a salt. Bounds are passed on as bounds.

T4 sequence (P42336 whole entry): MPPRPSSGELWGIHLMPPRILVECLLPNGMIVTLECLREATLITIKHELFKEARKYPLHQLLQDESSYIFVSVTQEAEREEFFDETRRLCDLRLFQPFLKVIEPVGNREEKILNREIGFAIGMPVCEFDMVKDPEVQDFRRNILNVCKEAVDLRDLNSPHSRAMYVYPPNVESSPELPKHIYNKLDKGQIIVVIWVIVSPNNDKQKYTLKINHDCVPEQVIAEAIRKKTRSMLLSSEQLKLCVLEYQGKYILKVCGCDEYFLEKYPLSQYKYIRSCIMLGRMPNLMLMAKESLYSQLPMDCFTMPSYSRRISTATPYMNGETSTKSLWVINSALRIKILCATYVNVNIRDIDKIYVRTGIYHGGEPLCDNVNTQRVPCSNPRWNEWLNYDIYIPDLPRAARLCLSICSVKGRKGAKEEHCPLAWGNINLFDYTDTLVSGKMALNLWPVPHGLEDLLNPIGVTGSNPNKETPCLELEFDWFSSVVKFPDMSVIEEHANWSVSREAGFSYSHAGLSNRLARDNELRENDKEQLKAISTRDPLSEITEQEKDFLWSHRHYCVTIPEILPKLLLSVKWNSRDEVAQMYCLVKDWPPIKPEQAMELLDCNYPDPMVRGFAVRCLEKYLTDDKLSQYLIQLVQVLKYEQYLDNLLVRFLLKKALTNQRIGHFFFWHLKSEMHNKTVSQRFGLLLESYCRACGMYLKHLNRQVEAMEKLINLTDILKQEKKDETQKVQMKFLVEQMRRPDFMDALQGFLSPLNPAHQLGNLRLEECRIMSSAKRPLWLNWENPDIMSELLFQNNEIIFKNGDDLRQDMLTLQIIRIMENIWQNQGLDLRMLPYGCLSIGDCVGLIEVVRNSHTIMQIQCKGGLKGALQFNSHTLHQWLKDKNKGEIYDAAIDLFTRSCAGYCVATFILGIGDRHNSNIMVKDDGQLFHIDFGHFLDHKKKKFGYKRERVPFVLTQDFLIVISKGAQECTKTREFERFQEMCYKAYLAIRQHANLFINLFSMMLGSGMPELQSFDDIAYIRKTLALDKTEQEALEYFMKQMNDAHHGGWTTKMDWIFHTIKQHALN
T1 sequence (P42338 whole entry): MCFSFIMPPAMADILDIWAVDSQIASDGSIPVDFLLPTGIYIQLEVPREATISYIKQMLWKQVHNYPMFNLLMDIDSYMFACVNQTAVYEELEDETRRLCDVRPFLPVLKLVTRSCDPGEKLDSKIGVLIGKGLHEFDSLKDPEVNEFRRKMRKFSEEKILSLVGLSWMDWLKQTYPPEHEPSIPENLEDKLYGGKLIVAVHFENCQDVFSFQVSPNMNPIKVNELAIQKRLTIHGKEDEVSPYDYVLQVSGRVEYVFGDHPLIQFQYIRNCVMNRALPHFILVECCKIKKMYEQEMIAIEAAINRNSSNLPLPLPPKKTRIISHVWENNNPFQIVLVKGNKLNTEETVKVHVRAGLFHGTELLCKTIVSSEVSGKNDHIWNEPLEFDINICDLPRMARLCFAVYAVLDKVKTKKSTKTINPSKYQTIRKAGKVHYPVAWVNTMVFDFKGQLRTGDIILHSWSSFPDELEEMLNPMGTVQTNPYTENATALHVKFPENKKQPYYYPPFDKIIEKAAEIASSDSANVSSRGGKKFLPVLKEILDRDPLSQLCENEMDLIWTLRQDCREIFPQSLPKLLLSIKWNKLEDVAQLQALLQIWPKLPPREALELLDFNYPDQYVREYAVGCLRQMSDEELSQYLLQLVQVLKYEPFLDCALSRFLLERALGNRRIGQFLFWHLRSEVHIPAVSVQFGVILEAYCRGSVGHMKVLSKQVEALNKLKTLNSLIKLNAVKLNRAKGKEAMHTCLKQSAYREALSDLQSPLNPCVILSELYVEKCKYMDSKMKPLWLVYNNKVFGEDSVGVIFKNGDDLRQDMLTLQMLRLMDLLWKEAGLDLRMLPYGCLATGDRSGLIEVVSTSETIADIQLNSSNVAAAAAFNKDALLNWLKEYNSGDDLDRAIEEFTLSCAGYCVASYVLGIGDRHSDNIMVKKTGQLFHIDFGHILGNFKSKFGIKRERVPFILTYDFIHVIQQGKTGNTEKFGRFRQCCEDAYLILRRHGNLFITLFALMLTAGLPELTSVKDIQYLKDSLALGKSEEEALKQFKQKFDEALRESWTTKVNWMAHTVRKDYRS

What is called melting point is the temperature of the solid-liquid transition. The compound `C[C@@H](Nc1cc(F)cc(F)c1)c1cc(C(=O)NCCN(C)C)cc2ncc(N3CCOCC3)nc12` (as salt: HCl) [Compound 184a] gave a melting point of 80 °C.

The compound `C[C@@H](Nc1cc(F)cc(F)c1)c1cc(C(=O)NCCN(C)C)cc2ncc(N3CCOCC3)nc12` (as salt: sulfonic acid salt) [Compound 184c] registered a melting point of 74 °C.

The compound `C[C@@H](Nc1cc(F)cc(F)c1)c1cc(C(=O)NCCN(C)C)cc2ncc(N3CCOCC3)nc12` (as salt: sulfuric acid salt) [Compound 184b] yielded a melting point of 270 °C.

Turning to `CC(Nc1cc(F)cc(F)c1)c1cc(CNCC(F)(F)F)cc2ncc(N3CCOCC3)nc12` (single isomer, unassigned) (as salt: HCl) (hydrate or solvate) [Compound 163], the melting point came out at 239 °C.

As for `CC(Nc1cc(F)cc(F)c1)c1cc(CN2CCO[C@@H](CO)C2)cc2ncc(N3CCOCC3)nc12` (single isomer, unassigned) (as salt: HCl) [Compound 193], the melting point was found to be 80 °C.

`CC(Nc1cc(F)cc(F)c1)c1cc(CN2CCO[C@H](CO)C2)cc2ncc(N3CCOCC3)nc12` (single isomer, unassigned) (as salt: HCl) [Compound 194] gave a melting point of 80 °C.

On to `COC1CN(Cc2cc(C(C)Nc3cc(F)cc(F)c3)c3nc(N4CCOCC4)cnc3c2)CC1OC` (single isomer, unassigned) (as salt: hydrochloride) [Compound 205], for which the melting point amounted to 80 °C.

`CC1CN(C(=O)c2cc(C3CCCN3c3cc(F)cc(F)c3)c3nc(N4CCOCC4)cnc3c2)CC(C)N1` (centres unmarked) [Compound 39] displayed a melting point of 80 °C.

As a reminder, the Kd is the equilibrium constant for the complex coming apart. In general, IC50 refers to the concentration that gives 50% inhibition. Turning to `Cc1c(F)cccc1CN(C)c1cc(C(=O)N(C)C)cc2ncc(N3CCOCC3)nc12` [Compound 354], the Kd at PI3Kβ is 63 nM; on kinase enzymes [1], more than 30.2 µM; on kinase enzymes [2] it was 28.2 µM; at kinase enzymes [3] it was 8.13 µM; on PI3Kδ, 2400 nM. For the same compound, the IC50 in series [4] and in series [5] was more than 513 nM throughout.

`Cc1c(F)cccc1CN(C)c1cc(C(=O)N(C)[C@@H]2CCNC2)cc2ncc(N3CCOCC3)nc12` [Compound 359]: the Kd stood at 43 nM at PI3Kβ; 6.46 µM on kinase enzymes [1]; 28.8 µM at kinase enzymes [2]; 11.3 µM on kinase enzymes [3]; 796 nM on PI3Kδ. In addition, the IC50 in series [4] and in series [5] was more than 513 nM in each case.

Consider `CC(C)N1CCCN(C(=O)c2cc(NCc3cc(F)cc(F)c3)c3nc(N4CCOCC4)cnc3c2)CC1` [Compound 360], for which the Kd at PI3Kβ was 42 nM; at kinase enzymes [1] it was more than 30.2 µM; on kinase enzymes [2], 26.9 µM; at kinase enzymes [3], 6.76 µM; on PI3Kδ, 11700 nM. Also, the IC50 in series [4] and in series [5] was more than 513 nM each time.

For the compound `CNCCN(C)C(=O)c1cc(N(C)Cc2cccc(F)c2C)c2nc(N3CCOCC3)cnc2c1` [Compound 362], the Kd was determined as 2 nM on PI3Kβ; 19.1 µM at kinase enzymes [1]; 9.77 µM at kinase enzymes [2]; 2.95 µM on kinase enzymes [3]; 490 nM at PI3Kδ. Further, the IC50 in series [4] was 263 nM; in series [5], 229 nM.

Consider `CN(C(=O)c1cc(NCc2cc(F)cc(F)c2)c2nc(N3CCOCC3)cnc2c1)[C@H]1CCNC1` [Compound 368], for which the Kd was 7 nM on PI3Kβ; more than 30.2 µM on kinase enzymes [1]; more than 30.2 µM at kinase enzymes [2]; 5.37 µM at kinase enzymes [3]; 1410 nM at PI3Kδ. The results for the IC50 in series [4] and in series [5] were approximately 23 nM and 120 nM, respectively.

For the compound `CC(C)N1CCCN(C(=O)c2cc(N(C)Cc3cc(F)cc(F)c3)c3nc(N4CCOCC4)cnc3c2)CC1` [Compound 373], the Kd on PI3Kβ was 158 nM; at kinase enzymes [1] it was more than 30.2 µM; at kinase enzymes [2], more than 30.2 µM; at kinase enzymes [3] it was more than 30.2 µM; on PI3Kδ it was 5250 nM. Besides, the half-maximal inhibitory concentration (IC50) in series [4] and in series [5] was more than 513 nM throughout.

For `CNCCN(C)C(=O)c1cc(C(C)Oc2cc(F)c(F)c(F)c2)c2nc(N3CCOCC3)cnc2c1` (centres unmarked) [Compound 379a], the Kd on PI3Kβ is 2 nM; on kinase enzymes [1], more than 30.2 µM; on kinase enzymes [2] it was more than 30.2 µM; at kinase enzymes [3], 9.77 µM; at PI3Kδ, 813 nM. In addition, the IC50 in series [4] is 22 nM; in series [5], approximately 29 nM.

Take `Cc1c(F)cccc1NCc1cc(C(=O)NCCO)cc2ncc(N3CCOCC3)nc12` [Compound 381]: the Kd is 26 nM at PI3Kβ; more than 30.2 µM at kinase enzymes [1]; 8.32 µM at kinase enzymes [2]; 3.55 µM on kinase enzymes [3]; 3800 nM at PI3Kδ. Moreover, the figures for the IC50 in series [4] and in series [5] were 117 nM and 209 nM, respectively.

With `CN(C)CCNC(=O)c1cc(NCc2cc(F)cc(F)c2)c2nc(N3CCOCC3)cnc2c1` [Compound 384], the Kd on PI3Kβ stood at 1 nM; at kinase enzymes [1] it was 20 µM; on kinase enzymes [2], 15.8 µM; on kinase enzymes [3], 2.69 µM; at PI3Kδ, 575 nM. Further, the IC50 in series [4] was found to be 7 nM; in series [5], 20 nM.

Consider `Cc1c(F)cccc1CNc1cc(C(=O)N(C)CCNC(C)C)cc2ncc(N3CCOCC3)nc12` [Compound 385], for which the dissociation constant (Kd) on PI3Kβ stood at 1 nM; at kinase enzymes [1] it was 16.6 µM; at kinase enzymes [2], 6.17 µM; on kinase enzymes [3] it was 0.933 µM; on PI3Kδ it was 347 nM. Besides, the IC50 in series [4] came out at 20 nM; in series [5], 32 nM.

In the case of `Cc1c(F)cccc1CN(C)c1cc(C(=O)N(C)CCNC(C)C)cc2ncc(N3CCOCC3)nc12` [Compound 386], the Kd at PI3Kβ turned out to be 15 nM; at kinase enzymes [1], 24.5 µM; on kinase enzymes [2] it was 14.8 µM; on kinase enzymes [3] it was 3.24 µM; on PI3Kδ, 692 nM. Also, the IC50 in series [4] and in series [5] was more than 513 nM each time.

Regarding `CC(C)NCCN(C)C(=O)c1cc(NCc2cc(F)cc(F)c2)c2nc(N3CCOCC3)cnc2c1` [Compound 389], the Kd at PI3Kβ is 5 nM; on kinase enzymes [1] it was more than 30.2 µM; on kinase enzymes [2] it was more than 30.2 µM; on kinase enzymes [3], 3.16 µM; on PI3Kδ, 2190 nM. In addition, the values for the IC50 in series [4] and in series [5] were 28 nM and 39 nM, respectively.

As for `O=C(NCCO)c1cc(N2CCC2c2ccc(F)cc2)c2nc(N3CCOCC3)cnc2c1` (centres unmarked) [Compound 391], the Kd at PI3Kβ is 251 nM; on kinase enzymes [1], 24.5 µM; at kinase enzymes [2], 12 µM; on kinase enzymes [3] it was 5.49 µM; at PI3Kδ it was 3390 nM. Moreover, the IC50 in series [4] and in series [5] was more than 513 nM throughout.

In the case of `CC1CN(c2cnc3cc(C(=O)N(C)C)cc(N4CCCC4c4cc(F)cc(F)c4)c3n2)CCO1` (centres unmarked) [Compound 396], the Kd on PI3Kβ is 120 nM; on kinase enzymes [1], more than 30.2 µM; at kinase enzymes [2], 20.9 µM; at kinase enzymes [3], 7.76 µM; on PI3Kδ, 2040 nM. The IC50 in series [4] and in series [5] was more than 513 nM each time.

On to `CN(C)C(=O)c1cc(N2CCC[C@@H]2c2cc(F)cc(F)c2)c2nc(C3=CCOCC3)cnc2c1` [Compound 398], for which the Kd on PI3Kβ was 257 nM; at kinase enzymes [1] it was more than 30.2 µM; at kinase enzymes [2] it was more than 30.2 µM; on kinase enzymes [3], 10.7 µM; on PI3Kδ, 5750 nM. Also, the IC50 in series [4] and in series [5] was more than 513 nM each time.
